This experiment has as its system P388 leukemia ip, CD2F1 mice, survival T/C. The experiment can be described thus: NCI In Vivo Anticancer Drug Screen. Data for tumor model P388 Leukemia (intraperitoneal) in CD2F1 (CDF1) mice. The following applies: endpoint: median survival time, higher = longer survival. The method, boiled down: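 Mice carrying the transplanted tumor received test compound or vehicle. Survival was recorded in each group, and the value is the treated-group measurement divided by that of the vehicle-treated control group.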

[1] abbreviates: dose: 50.0 mg/kg/injection, schedule: Q01DX005 (ip), vehicle: Klucel (hydroxypropylcellulose) (HPC).
The mark [2] stands for this setting: dose: 60.0 mg/kg/injection, schedule: Q01DX005 (ip), vehicle: saline with Tween-80.
Where [3] appears, read: dose: 120.0 mg/kg/injection, schedule: Q01DX005 (ip), vehicle: saline with Tween-80.
Setting [4] is: dose: 100.0 mg/kg/injection, schedule: Q01DX001 (ip), vehicle: saline.
Where [5] appears, read: dose: 50.0 mg/kg/injection, schedule: Q01DX005 (ip), vehicle: saline with Tween-80.
Setting [6] is: dose: 100.0 mg/kg/injection, schedule: Q01DX005 (ip), vehicle: saline with Tween-80.
The mark [7] stands for this setting: dose: 200.0 mg/kg/injection, schedule: Q01DX005 (ip), vehicle: saline with Tween-80.

Each structure is given as a SMILES string. Where “and” joins values, the source holds several entries; their conditions need not be identical. Equal entries are not always repeated. Toxic doses and inconclusive results are not listed.

The record followed here is PubChem BioAssay AID330 (DTP/NCI, 2004).

With `CCC1(O)CC2CCc3[nH]c4ccccc4c3CCN(C2)C1` (stereo not given), the T/C reads like this: (dose: 5.25 mg/kg/injection, schedule: Q01DX005 (ip), vehicle: Klucel (hydroxypropylcellulose) (HPC)) 100 % of control; (dose: 10.5 mg/kg/injection, schedule: Q01DX005 (ip), vehicle: Klucel (hydroxypropylcellulose) (HPC)) 100 % of control; (dose: 21.0 mg/kg/injection, schedule: Q01DX005 (ip), vehicle: Klucel (hydroxypropylcellulose) (HPC)) 98 % of control; (dose: 42.0 mg/kg/injection, schedule: Q01DX005 (ip), vehicle: Klucel (hydroxypropylcellulose) (HPC)) 95 % of control.

`CCn1c(COc2c(I)cc(I)c3cccnc23)n[nH]c1=S`: the T/C is 96 % of control (dose: 6.25 mg/kg/injection, schedule: Q01DX005 (ip), vehicle: Klucel (hydroxypropylcellulose) (HPC)); 98 % of control (dose: 12.5 mg/kg/injection, schedule: Q01DX005 (ip), vehicle: Klucel (hydroxypropylcellulose) (HPC)); 102 % of control (dose: 25.0 mg/kg/injection, schedule: Q01DX005 (ip), vehicle: Klucel (hydroxypropylcellulose) (HPC)); 98 % of control under setting [1].

Take `CC1CN=C(c2ccc(NC(=O)NCCCCCCCCCNC(=O)Nc3ccc(C4=NCC(C)N4)cc3)cc2)N1` (stereo not given): the T/C runs as follows: (dose: 12.5 mg/kg/injection, schedule: Q01DX005 (ip), vehicle: saline + Tween-80 + alcohol) 106 % of control and 110 % of control; (dose: 25.0 mg/kg/injection, schedule: Q01DX005 (ip), vehicle: saline + Tween-80 + alcohol) 105 % of control and 118 % of control; (dose: 50.0 mg/kg/injection, schedule: Q01DX005 (ip), vehicle: saline + Tween-80 + alcohol) 110 % of control and 121 % of control; (dose: 100.0 mg/kg/injection, schedule: Q01DX005 (ip), vehicle: saline + Tween-80 + alcohol) 108 % of control.

For `COc1nccnn1`, the T/C by setting is: (dose: 50.0 mg/kg/injection, schedule: Q01DX009 (ip), vehicle: saline) 95 % of control; (dose: 100.0 mg/kg/injection, schedule: Q01DX009 (ip), vehicle: saline) 91 % of control; (dose: 200.0 mg/kg/injection, schedule: Q01DX009 (ip), vehicle: saline) 95 % of control; (dose: 400.0 mg/kg/injection, schedule: Q01DX009 (ip), vehicle: saline) 107 % of control.

Turning to `CC1(O)OC(COc2ccc(Cl)cc2)COC1O` (stereo not given), the T/C runs as follows: under setting [2], 112 % of control; under setting [3], 103 % of control.

For `COC(=O)CC1(C(=O)OC)C(Sc2ccccc2)=C(c2ccccc2)N2CCCC21` (stereo not given), the T/C (dose: 21.88 mg/kg/injection, schedule: Q01DX009 (ip), vehicle: Klucel (hydroxypropylcellulose) (HPC)) is 101 % of control; the T/C (dose: 43.75 mg/kg/injection, schedule: Q01DX009 (ip), vehicle: Klucel (hydroxypropylcellulose) (HPC)) is 96 % of control; the T/C (dose: 87.5 mg/kg/injection, schedule: Q01DX009 (ip), vehicle: Klucel (hydroxypropylcellulose) (HPC)) was 96 % of control; the T/C (dose: 175.0 mg/kg/injection, schedule: Q01DX009 (ip), vehicle: Klucel (hydroxypropylcellulose) (HPC)) was 92 % of control.

`CC1NC(=O)NC(=O)C1=S` (stereo not given): the T/C is, setting by setting: under setting [1], 112 % of control; (dose: 100.0 mg/kg/injection, schedule: Q01DX005 (ip), vehicle: Klucel (hydroxypropylcellulose) (HPC)) 111 % of control; (dose: 200.0 mg/kg/injection, schedule: Q01DX005 (ip), vehicle: Klucel (hydroxypropylcellulose) (HPC)) 113 % of control.

On to `O=C(O)C(=O)O.O=N[O-].[Co+3].[NH-]CC[N-]CC[NH-]`, for which the T/C runs as follows: (dose: 25.0 mg/kg/injection, schedule: Q01DX009 (ip), vehicle: saline with Tween-80) 108 % of control; (dose: 50.0 mg/kg/injection, schedule: Q01DX009 (ip), vehicle: saline with Tween-80) 108 % of control.

For `OCC(O)CO`, the T/C runs as follows: (dose: 0.5 % in 0.5 ml injection vol, schedule: Q01DX009 (ip), vehicle: water) 100 % of control; (dose: 1.0 % in 0.5 ml injection vol, schedule: Q01DX009 (ip), vehicle: water) 93 % of control; (dose: 2.0 % in 0.5 ml injection vol, schedule: Q01DX009 (ip), vehicle: water) 99 % of control and 105 % of control; (dose: 4.0 % in 0.5 ml injection vol, schedule: Q01DX009 (ip), vehicle: water) 105 % of control and 111 % of control; (dose: 8.0 % in 0.5 ml injection vol, schedule: Q01DX009 (ip), vehicle: water) 104 % of control and 94 % of control; (dose: 16.0 % in 0.5 ml injection vol, schedule: Q01DX009 (ip), vehicle: water) 101 % of control and 102 % of control.

Turning to `OC1(C(O)(c2ccc(-c3ccccc3)cc2)c2ccc(-c3ccccc3)cc2)CC=CCC1` (stereo not given), the T/C under setting [2] was 105 % of control; the T/C under setting [3] was 92 % of control; the T/C (dose: 240.0 mg/kg/injection, schedule: Q01DX005 (ip), vehicle: saline with Tween-80) is 90 % of control.

For the molecule `Clc1ccccc1/C=C/c1ccnnc1`, the T/C by setting is: (dose: 25.0 mg/kg/injection, schedule: Q01DX001 (ip), vehicle: saline) 96 % of control; (dose: 50.0 mg/kg/injection, schedule: Q01DX001 (ip), vehicle: saline) 95 % of control; under setting [4], 95 % of control; (dose: 100.0 mg/kg/injection, schedule: Q01DX001 (ip), vehicle: suspension in saline) 101 % of control; (dose: 200.0 mg/kg/injection, schedule: Q01DX001 (ip), vehicle: suspension in saline) 97 % of control; (dose: 400.0 mg/kg/injection, schedule: Q01DX001 (ip), vehicle: suspension in saline) 97 % of control.

`CCCCC(CC)C(=O)OCCCNC(=O)C(C)OC(=O)C(CC)CCCC` (stereo not given): the T/C runs as follows: under setting [5], 104 % of control; under setting [6], 87 % of control; under setting [7], 104 % of control.

`CS(=O)(=O)OCC(=O)NCC(O)CNC(=O)COS(C)(=O)=O`: the T/C is, setting by setting: (dose: 200.0 mg/kg/injection, schedule: Q01DX009 (ip), vehicle: saline with Tween-80) 175 % of control; (dose: 200.0 mg/kg/injection, schedule: Q04DX003 (ip), vehicle: saline with Tween-80) 181 % of control; (dose: 400.0 mg/kg/injection, schedule: Q04DX003 (ip), vehicle: saline with Tween-80) 162 % of control and 181 % of control.

Turning to `COC(=O)C(CC(=O)c1cc2c(cc1Br)OCO2)(Cc1cc(OC)c(OC)c(OC)c1I)C(=O)OC`, the T/C is, setting by setting: (dose: 3.12 mg/kg/injection, schedule: Q01DX009 (ip), vehicle: saline) 97 % of control; (dose: 6.25 mg/kg/injection, schedule: Q01DX009 (ip), vehicle: saline) 98 % of control; (dose: 12.5 mg/kg/injection, schedule: Q01DX009 (ip), vehicle: saline) 97 % of control; (dose: 25.0 mg/kg/injection, schedule: Q01DX009 (ip), vehicle: saline) 98 % of control; under setting [4], 100 % of control; (dose: 200.0 mg/kg/injection, schedule: Q01DX001 (ip), vehicle: saline) 98 % of control. For the setting “dose: 400.0 mg/kg/injection, schedule: Q01DX001 (ip), vehicle: saline”, the T/C is 100 % of control.

Turning to `COc1cccc(C(=O)CC(c2ccccc2)C(C)(C)[N+](=O)[O-])c1` (stereo not given), the T/C reads like this: (dose: 25.0 mg/kg/injection, schedule: Q01DX005 (ip), vehicle: saline with Tween-80) 105 % of control; under setting [5], 99 % of control; under setting [6], 99 % of control.

`O=C1c2ccccc2CN(c2ccccc2)C(=Nc2ccccc2)N1c1ccccc1`: the T/C runs as follows: under setting [5], 95 % of control; under setting [6], 93 % of control; under setting [7], 95 % of control.

In the case of `CC(=O)Oc1cc(-c2ccccc2)oc1-c1ccccc1`, the T/C by setting is: (dose: 100.0 mg/kg/injection, schedule: Q04DX002 (ip), vehicle: saline) 104 % of control; (dose: 200.0 mg/kg/injection, schedule: Q04DX002 (ip), vehicle: saline) 106 % of control; (dose: 400.0 mg/kg/injection, schedule: Q04DX002 (ip), vehicle: saline) 98 % of control.

As for `CN(C)C1CCC(NC2=CC(=O)C=CC2=O)CC1` (stereo not given), the T/C was 101 % of control (dose: 0.78 mg/kg/injection, schedule: Q01DX005 (ip), vehicle: saline); 97 % of control (dose: 1.56 mg/kg/injection, schedule: Q01DX005 (ip), vehicle: saline); 97 % of control (dose: 3.12 mg/kg/injection, schedule: Q01DX005 (ip), vehicle: saline).

Turning to `CCN=c1c([N+](=O)[O-])c(NC(=O)c2ccccc2)sn1CC`, the T/C runs as follows: (dose: 100.0 mg/kg/injection, schedule: Q04DX002 (ip), vehicle: Klucel (hydroxypropylcellulose) (HPC)) 97 % of control; (dose: 200.0 mg/kg/injection, schedule: Q04DX002 (ip), vehicle: Klucel (hydroxypropylcellulose) (HPC)) 99 % of control; (dose: 400.0 mg/kg/injection, schedule: Q04DX002 (ip), vehicle: Klucel (hydroxypropylcellulose) (HPC)) 107 % of control.
